Results taken from patent US20260257998A1, “ERR MODULATORS” (University of Health Sciences and Pharmacy in St. Louis, priority 2023, published 2026).

Legend:
ERRγ = molecular target: T1, ERRγ (Homo sapiens, UniProt P62508); assay: ERRE luciferase reporter assay in HEK293 cells transfected with pcDNA3.1 ERRγ; format: cell-based; set-up: key to EC50 (ERRγ): ***<1 μM; **1-5 μM; *>5 μM; i.a. (inactive); details: 24 hours treatment, luciferase activity
T1 construct: expressed in transfected cells; host or cells: HEK293
T1 sequence (P62508 1-458): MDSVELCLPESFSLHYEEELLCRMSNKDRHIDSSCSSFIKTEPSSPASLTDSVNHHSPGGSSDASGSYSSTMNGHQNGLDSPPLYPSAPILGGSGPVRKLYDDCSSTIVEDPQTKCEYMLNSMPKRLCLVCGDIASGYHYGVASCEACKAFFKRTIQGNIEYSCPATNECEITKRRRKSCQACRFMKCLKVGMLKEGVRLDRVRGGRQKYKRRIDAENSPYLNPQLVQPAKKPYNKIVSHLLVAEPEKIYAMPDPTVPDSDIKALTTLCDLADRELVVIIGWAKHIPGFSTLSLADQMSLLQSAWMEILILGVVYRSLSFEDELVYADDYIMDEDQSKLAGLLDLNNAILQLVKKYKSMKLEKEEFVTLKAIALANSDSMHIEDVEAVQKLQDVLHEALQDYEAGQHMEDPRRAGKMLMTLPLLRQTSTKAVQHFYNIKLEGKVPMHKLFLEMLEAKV
Experimental: (§1) HEK293 cells were maintained in Dulbecco's modified Eagles medium (DMEM) supplemented with 10% fetal bovine serum at 37° C. under 5% CO2. […] Cells were transfected with ERRE reporter construct and pcDNA3.1 ERRα or ERRγ. Twenty-four-hours post-transfection, the cells were treated with vehicle or compound (various concentrations) for 24 hours (4 wells per dose). Luciferase activity was measured using the One-Glo Tox luciferase reporter assay system (Promega) and […] were calculated using GraphPad Prism software.

ERRα = molecular target: T2, ERRα (Homo sapiens, UniProt P11474); assay: ERRE luciferase reporter assay in HEK293 cells transfected with pcDNA3.1 ERRα; format: cell-based; set-up: key to EC50 (ERRα): ***<1 μM; **1-5 μM; *>5 μM; i.a. (inactive); details: 24 hours treatment, luciferase activity
T2 construct: expressed in transfected cells; host or cells: HEK293
T2 sequence (P11474 1-423): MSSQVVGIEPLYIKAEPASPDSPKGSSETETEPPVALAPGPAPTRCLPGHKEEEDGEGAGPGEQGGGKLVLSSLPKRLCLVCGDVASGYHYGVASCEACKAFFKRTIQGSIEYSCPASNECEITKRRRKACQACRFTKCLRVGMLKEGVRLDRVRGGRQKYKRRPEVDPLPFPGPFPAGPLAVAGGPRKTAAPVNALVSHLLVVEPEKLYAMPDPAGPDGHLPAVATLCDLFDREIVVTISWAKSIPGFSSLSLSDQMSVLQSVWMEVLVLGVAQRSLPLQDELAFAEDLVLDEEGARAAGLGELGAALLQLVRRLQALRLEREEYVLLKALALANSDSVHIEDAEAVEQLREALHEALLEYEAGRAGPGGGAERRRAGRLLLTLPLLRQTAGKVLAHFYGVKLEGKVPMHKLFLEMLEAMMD
Experimental: as §1

| Compound | EC50 (ERRγ) [µM] | EC50 (ERRα) [µM] | EC50 (ERRγ) (ERRγ) | EC50 (ERRα) (ERRα) |
| --- | --- | --- | --- | --- |
| Oc1ccccc1C1CC(c2ccccn2)=NN1 (centres unmarked) [Entry 25, 2-(3-(Pyridin-2-yl)-4,5-dihydro-1H-pyrazol-5-yl)phenol] | > 5 | > 5 |  |  |
| Oc1c(Br)cccc1C1CC(c2ccc(Br)cc2)=NN1 (centres unmarked) [Entry 35, 2-Bromo-6-(3-(4-bromophenyl)-4,5-dihydro-1H-pyrazol-5-yl)phenol] | 1 to 5 | 1 to 5 |  |  |
| FC(F)(F)c1ccc(C2=NNC(c3ccccc3)C2)cc1 (centres unmarked) [Entry 75, 5-phenyl-3-(4-(trifluoromethyl)phenyl)-4,5-dihydro-1H-pyrazole] | 1 to 5 | 1 to 5 |  |  |
| Oc1ccc(C2CC(c3cccc(O)c3)=NN2)cc1 (centres unmarked) [Entry 100, 3-(5-(4-hydroxyphenyl)-4,5-dihydro-1H-pyrazol-3-yl)phenol] | 1 to 5 | 1 to 5 |  |  |
| Oc1ccccc1C1CC(c2cc(C(F)(F)F)cc(C(F)(F)F)c2)=NN1 (centres unmarked) [Entry 6, 2-(3-(3,5-bis(trifluoromethyl)phenyl)-4,5-dihydro-1H-pyrazol-5-yl)phenol] |  |  | i.a. | i.a. |
| Oc1cccc(C2CC(c3ccc(F)cc3)=NN2)c1 (centres unmarked) [Entry 87, 3-(3-(4-fluorophenyl)-4,5-dihydro-1H-pyrazol-5-yl)phenol] | > 5 | 1 to 5 |  |  |
| CC(=O)N1N=C(c2cccc(C)c2)CC1c1ccccc1O (centres unmarked) [Entry 14, 1-(5-(2-Hydroxyphenyl)-3-(m-tolyl)-4,5-dihydro-1H-pyrazol-1-yl)ethan-1-one] |  |  | i.a. | i.a. |
| Oc1ccccc1C1=NNC(c2ncc[nH]2)C1 (centres unmarked) [Entry 92, 2-(5-(1H-imidazol-2-yl)-4,5-dihydro-1H-pyrazol-3-yl)phenol] | 1 to 5 | > 5 |  |  |
| Oc1ccccc1C1=NNC(c2ccc(Br)cc2O)C1 (centres unmarked) [Entry 120, 5-bromo-2-(3-(2-hydroxyphenyl)-4,5-dihydro-1H-pyrazol-5-yl)phenol] | > 5 | > 5 |  |  |
| COc1ccc(C2=NNC(c3cccc(Cl)c3O)C2)cc1 (centres unmarked) [Entry 58, 2-chloro-6-(3-(4-methoxyphenyl)-4,5-dihydro-1H-pyrazol-5-yl)phenol] | 1 to 5 | 1 to 5 |  |  |
| Oc1ccccc1C1CC(c2cccc(OC(F)(F)F)c2)=NN1 (centres unmarked) [Entry 1, o-[3-(m-Trifluoromethoxy-phenyl)-2-pyrazolin-5-yl]phenol] |  | > 5 | i.a. |  |
| Clc1ccc(C2CC(c3ccccc3Br)=NN2)cc1Cl (centres unmarked) [Entry 111, 3-(2-bromophenyl)-5-(3,4-dichlorophenyl)-4,5-dihydro-1H-pyrazole] |  |  | i.a. | i.a. |
| Oc1ccccc1C1CC(c2ccc(C(F)(F)F)cc2)=NN1 (centres unmarked) [Entry 40, 2-(3-(4-(Trifluoromethyl)phenyl)-4,5-dihydro-1H-pyrazol-5-yl)phenol] | 1 to 5 | < 1 |  |  |
| COc1cccc(C2=NN(C(C)=O)C(c3ccccc3O)C2)c1 (centres unmarked) [Entry 13, 1-(5-(2-Hydroxyphenyl)-3-(3-methoxyphenyl)-4,5-dihydro-1H-pyrazol-1-yl)ethan-1-one] |  |  | i.a. | i.a. |
| Oc1ccccc1C1CC(c2ccccc2C(F)(F)F)=NN1 (centres unmarked) [Entry 103, 2-(3-(2-(trifluoromethyl)phenyl)-4,5-dihydro-1H-pyrazol-5-yl)phenol] |  |  | i.a. | i.a. |
| Oc1ccc(C2CC(c3cc(C(F)(F)F)cc(C(F)(F)F)c3)=NN2)cc1 (centres unmarked) [Entry 9, 4-(3-(3,5-bis(trifluoromethyl)phenyl)-4,5-dihydro-1H-pyrazol-5-yl)phenol] |  |  | i.a. | i.a. |
| Oc1ccccc1C1CC(c2ccncc2)=NN1 (centres unmarked) [Entry 2, 2-(3-(pyridin-4-yl)-4,5-dihydro-1H-pyrazol-5-yl)phenol] | > 5 |  |  | i.a. |

Continued, values first:

| EC50 (ERRγ) [µM] | EC50 (ERRα) [µM] | EC50 (ERRγ) (ERRγ) | EC50 (ERRα) (ERRα) | Compound |
| --- | --- | --- | --- | --- |
| 1 to 5 | 1 to 5 |  |  | Oc1cccc(C2CC(c3ccccc3F)=NN2)c1 (centres unmarked) [Entry 90, 3-(3-(2-fluorophenyl)-4,5-dihydro-1H-pyrazol-5-yl)phenol] |
| > 5 | > 5 |  |  | Oc1ccccc1C1CC(c2cccc(Br)c2)=NN1 (centres unmarked) [Entry 29, 2-(3-(3-Bromophenyl)-4,5-dihydro-1H-pyrazol-5-yl)phenol] |
| 1 to 5 | 1 to 5 |  |  | Oc1cccc(C2=NNC(c3ccc4ccccc4c3)C2)c1 (centres unmarked) [Entry 99, 3-(5-(naphthalen-2-yl)-4,5-dihydro-1H-pyrazol-3-yl)phenol] |
|  |  | i.a. | i.a. | Oc1ccc2cc(C3CC(c4ccc(Br)cc4)=NN3)ccc2c1 (centres unmarked) [Entry 93, 6-(3-(4-bromophenyl)-4,5-dihydro-1H-pyrazol-5-yl)naphthalen-2-ol] |
| < 1 |  |  | i.a. | Oc1ccccc1C1=NNC(c2ccc3ccccc3c2)C1 (centres unmarked) [Entry 21, 2-(5-(Naphthalen-2-yl)-4,5-dihydro-1H-pyrazol-3-yl)phenol] |
|  |  | i.a. | i.a. | Brc1ccc(C2=NNC(c3ccc4ccccc4c3)C2)cc1 (centres unmarked) [Entry 81, 3-(4-bromophenyl)-5-(naphthalen-2-yl)-4,5-dihydro-1H-pyrazole] |
|  |  | i.a. | i.a. | FC(F)(F)c1cc(C2=NNC(c3ccc(Cl)cc3)C2)cc(C(F)(F)F)c1 (centres unmarked) [Entry 68, 3-(3,5-bis(trifluoromethyl)phenyl)-5-(4-chlorophenyl)-4,5-dihydro-1H-pyrazole] |
|  |  | i.a. | i.a. | CC(=O)N1N=C(c2ccc(Br)cc2)CC1c1ccccc1O (centres unmarked) [Entry 12, 1-(3-(4-Bromophenyl)-5-(2-hydroxyphenyl)-4,5-dihydro-1H-pyrazol-1-yl)ethan-1-one] |
| > 5 | > 5 |  |  | Oc1ccc(C2CC(c3ccc(Cl)cc3)=NN2)cc1 (centres unmarked) [Entry 7, 4-(3-(4-Chlorophenyl)-4,5-dihydro-1H-pyrazol-5-yl)phenol] |
| > 5 | > 5 |  |  | Cc1nc[nH]c1C1CC(c2ccc(Br)cc2)=NN1 (centres unmarked) [Entry 105, 3-(4-bromophenyl)-5-(4-methyl-1H-imidazol-5-yl)-4,5-dihydro-1H-pyrazole] |
| > 5 | > 5 |  |  | Oc1ccc(C2CC(c3cccc(Br)c3)=NN2)cc1 (centres unmarked) [Entry 84, 4-(3-(3-bromophenyl)-4,5-dihydro-1H-pyrazol-5-yl)phenol] |
| > 5 | > 5 |  |  | Oc1ccc(C2CC(c3ccc(F)cc3)=NN2)cc1 (centres unmarked) [Entry 85, 4-(3-(4-fluorophenyl)-4,5-dihydro-1H-pyrazol-5-yl)phenol] |
|  |  | i.a. | i.a. | CC(C)(C)c1cc(C2CC(c3ccc(Br)cc3)=NN2)c(O)c(C(C)(C)C)c1 (centres unmarked) [Entry 115, 2-(3-(4-bromophenyl)-4,5-dihydro-1H-pyrazol-5-yl)-4,6-di-tert-butylphenol] |
| > 5 | > 5 |  |  | COc1ccc(C2=NNC(c3ccc(C)cc3O)C2)cc1 (centres unmarked) [Entry 59, 2-(3-(4-methoxyphenyl)-4,5-dihydro-1H-pyrazol-5-yl)-5-methylphenol] |
| 1 to 5 | 1 to 5 |  |  | Oc1cccc(C2CC(c3cccc(Br)c3)=NN2)c1 (centres unmarked) [Entry 97, 3-(3-(3-bromophenyl)-4,5-dihydro-1H-pyrazol-5-yl)phenol] |
|  |  | i.a. | i.a. | Oc1ccc(C2CC(c3cccc(C(F)(F)F)c3)=NN2)cc1 (centres unmarked) [Entry 82, 4-(3-(3-(trifluoromethyl)phenyl)-4,5-dihydro-1H-pyrazol-5-yl)phenol] |
| 1 to 5 | 1 to 5 |  |  | COc1ccccc1C1=NNC(c2ccccc2O)C1 (centres unmarked) [Entry 53, 2-(3-(2-Methoxyphenyl)-4,5-dihydro-1H-pyrazol-5-yl)phenol] |
|  |  | i.a. | i.a. | CC(=O)N1N=C(c2ccccc2Cl)CC1c1ccccc1O (centres unmarked) [Entry 16, 1-(3-(2-Chlorophenyl)-5-(2-hydroxyphenyl)-4,5-dihydro-1H-pyrazol-1-yl)ethan-1-one] |
|  |  | i.a. | i.a. | CCc1ccccc1C1CC(c2ccccc2O)=NN1 (centres unmarked) [Entry 22, 2-(5-(2-Ethylphenyl)-4,5-dihydro-1H-pyrazol-3-yl)phenol] |
| 1 to 5 |  |  | i.a. | COc1cccc(C2CC(c3ccc(C(F)(F)F)cc3)=NN2)c1O (centres unmarked) [Entry 64, 2-methoxy-6-(3-(4-(trifluoromethyl)phenyl)-4,5-dihydro-1H-pyrazol-5-yl)phenol] |
